Results taken from patent US20110002843A1, “METHOD OF DETECTING MYOCARDIAL DYSFUNCTION IN PATIENTS HAVING A HISTORY OF ASTHMA OR BRONCHOSPASM” (priority 2005, published 2011).
“Also recorded” adds a separate entry of the source.

Assay: Pulmonary responses and safety in human subjects with mild, intermittent asthma (single-blind and double-blind parts)
Type: in vivo
Procedure: Methodology: The study consisted of 2 parts, a Single-Blind Part and a Double-Blind Part. The dose escalating, Single-Blind Part enrolled subjects with mild, intermittent asthma and consisted of 3 sequentially enrolled dosing cohorts with 8 subjects per cohort, such that Dosing Cohorts 1, 2 and 3 received binodenoson target doses of 0.5 μg/kg, 1.0 μg/kg and 1.5 μg/kg, respectively. All 8 subjects in a dosing cohort must have completed dosing at the assigned dose and a medical review of each cohort must have been acceptable before enrollment in the next cohort began. The Double-Blind Part was initiated only if the medical review of all safety data from the Single-Blind Part was acceptable. In the Double Blind Part, subjects with mild, intermittent asthma were randomly assigned in a 2:1 ratio to receive either binodenoson 1.5 μg/kg (n=40 planned) or placebo control (n=20 planned).
Both study parts were comprised of Screening, Treatment and Follow-Up Visits. The Screening Visit occurred 7 to 14 days before the Treatment Visit and consisted of a physical examination, medical history and application of inclusion and exclusion criteria. Subjects were instructed to measure peak expiratory flow (PEF) and asthma symptoms during a period of at least 7 days prior to the Treatment Visit. Subjects were to continue to meet all Screening eligibility criteria at the Treatment Visit and forced expiratory volume in 1 second (FEV1) was to remain within 80% of predicted for subjects to be eligible for dosing. All subjects enrolled in the Single-Blind Part and subjects randomized to receive binodenoson in the Double-Blind Part received 3 intravenous (IV) injections during the Treatment Visit: (1) placebo; (2) a low, challenge binodenoson dose to detect potential hypersensitivity reactions; and (3) an assigned binodenoson test dose. Subjects randomized to receive placebo in the Double Blind Part received 3 placebo injections. The Follow-Up Visit occurred 2 to 4 days following the Treatment Visit.
Eligible subjects were males or non-pregnant, nonlactating females ≧18 years of age weighing <350 pounds with a medical history of mild, intermittent asthma (as defined in the “Guidelines for the Diagnosis and Management of Asthma” prepared by the National Institutes of Health [NIH]) within 6 months of Screening.
Subjects were not eligible for the study if they had resting sitting systolic blood pressure (SBP)<100 or >140 mmHg, diastolic blood pressure (DBP)<60 or >90 mmHg, pulse rate >95 beats per minute (bpm), or a lower limit FEV1 at rest of <80% of the predicted value at Screening.
Dose and Mode of Administration: A stock solution of binodenoson (25 μg/mL) was administered as a bolus injection over 30 seconds (0.1 μg/kg=0.004 mL/kg of stock solution, 0.5 μg/kg=0.02 mL/kg of stock solution, 1.0 μg/kg=0.04 mL/kg of stock solution and 1.5 μg/kg=0.06 mL/kg of stock solution).
Duration of Treatment: Each subject received three 30-second bolus IV injections separated by ≧90 minutes in both the Single Blind and Double-Blind Parts of the study.
Criteria for Evaluation: The primary safety endpoint was clinically significant bronchoconstriction, defined as a ≧20% decrease in FEV1 from the predrug baseline following binodenoson administration. Other safety assessments included need for rescue medication, regular measurements of pulmonary function (FEV1 [% predicted], forced vital capacity [FVC] and forced expiratory flow during the middle half of the FVC [FEF25%-75%]), vital signs, pulse oximetry, physical examination findings, electrocardiogram (ECG) results, clinical laboratory results and adverse events.
Statistical Methods: All data collected in the study were summarized by treatment (placebo; 0.1 μg/kg binodenoson challenge; or 0.5, 1.0, or 1.5 μg/kg binodenoson) and study Part (Single-Blind or Double-Blind with univariate summaries). Continuous variables were summarized with descriptive statistics (n, mean, median, standard deviation [SD] and minimum and maximum). […]

[1] = double-blind, Binodenoson Group, second injection 0.1 μg/kg iv bolus, 15 minutes
[2] = double-blind, Binodenoson Group, second injection 0.1 μg/kg iv bolus, 90 minutes
[3] = double-blind, binodenoson 1.5 μg/kg group
[4] = double-blind, third injection 1.5 μg/kg
[5] = double-blind, third injection 1.5 μg/kg iv bolus, 5 min
[6] = double-blind, third injection 1.5 μg/kg iv bolus, 15 min
[7] = double-blind, third injection 1.5 μg/kg iv bolus, 45 min
[8] = double-blind, third injection 1.5 μg/kg iv bolus, 90 min
[9] = single-blind, Cohort 1, second injection 0.1 μg/kg iv bolus, 15 minutes
[10] = single-blind, Cohort 1, second injection 0.1 μg/kg iv bolus, 90 minutes
[11] = single-blind, Cohort 2, second injection 0.1 μg/kg iv bolus, 15 minutes
[12] = single-blind, Cohort 2, second injection 0.1 μg/kg iv bolus, 90 minutes
[13] = single-blind, Cohort 3, second injection 0.1 μg/kg iv bolus, 15 minutes
[14] = single-blind, Cohort 3, second injection 0.1 μg/kg iv bolus, 90 minutes

Compound: Nc1nc(N/N=C/C2CCCCC2)nc2c1ncn2[C@@H]1O[C@H](CO)[C@@H](O)[C@H]1O (stereo in doubt) [Binodenoson, 2-{2-[(Cyclohexyl)methylene]hydrazino}adenosine]
- changes from baseline in mean FEV1, FEV1 (% predicted), FEF25%-75%, FVC (after any injection, single- or double-blind part): No clinically significant changes from baseline
- safety and tolerability (doses up to 1.5 μg/kg): safe and well tolerated
- FEF25%-75% Mean % Change from Baseline (SD) [1]: 1.531 (5.261) %
- FEF25%-75% Mean (SD) [1]: 2.946 (0.973)
- FEV1 (% predicted) Mean % Change from Baseline (SD) [1]: 0.3 (2.4) %
- FEV1 (% predicted) Mean (SD) [1]: 88.3 (6.9) % predicted
- FEV1 (L) Mean % Change from Baseline (SD) [1]: 0.421 (2.525) %
- FEV1 (L) Mean (SD) [1]: 3.170 (0.590) L
- FVC Mean % Change from Baseline (SD) [1]: 0.055 (2.683) %
- FVC Mean (SD) [1]: 4.051 (0.824)
- FEF25%-75% Mean % Change from Baseline (SD) [2]: 1.181 (6.739) %
- FEF25%-75% Mean (SD) [2]: 2.965 (1.071)
- FEV1 (% predicted) Mean % Change from Baseline (SD) [2]: −0.1 (2.9) %
- FEV1 (% predicted) Mean (SD) [2]: 87.9 (7.7) % predicted
- FEV1 (L) Mean % Change from Baseline (SD) [2]: −0.042 (3.348) %
- FEV1 (L) Mean (SD) [2]: 3.152 (0.574) L
- FVC Mean % Change from Baseline (SD) [2]: −0.457 (3.163) %
- FVC Mean (SD) [2]: 4.021 (0.778)
- abdominal discomfort, treatment emergent AE [3]: 5%
- dizziness, treatment emergent AE [3]: 18%
- flushing, treatment emergent AE [3]: 15%
- headache, treatment emergent AE [3]: 5%
- nausea, treatment emergent AE [3]: 8%
- sinus tachycardia, treatment emergent AE [3]: 8%
- tachycardia, treatment emergent AE [3]: 31%
- changes from baseline in mean FEV1, FEV1 (% predicted), FEF25%-75%, FVC (double-blind, binodenoson 1.5 μg/kg group, after first or second injections): no clinically significant changes from baseline
- subjects who experienced AEs (double-blind, binodenoson 1.5 μg/kg subjects (placebo 19%)): 69%
- changes from baseline in mean FEV1, FEV1 (% predicted), FEF25%-75%, FVC [4]: No clinically significant changes from baseline
- treatment differences in pulmonary function versus placebo [4]: no statistically significant treatment differences
- FEF25%-75% Mean % Change from Baseline (SD) [5]: −0.877 (6.999) %
- FEF25%-75% Mean (SD) [5]: 2.913 (0.981)
- FEV1 (% predicted) Mean % Change from Baseline (SD) [5]: 0.1 (3.3) %
- FEV1 (% predicted) Mean (SD) [5]: 88.0 (8.7) % predicted
- FEV1 Mean % Change from Baseline (SD) [5]: 0.028 (3.849) %
- FEV1 Mean (SD) [5]: 3.153 (0.589)
- FVC Mean % Change from Baseline (SD) [5]: 0.186 (4.299) %
- FVC Mean (SD) [5]: 4.022 (0.746)
- FEF25%-75% Mean % Change from Baseline (SD) [6]: −0.477 (6.555) %
- FEF25%-75% Mean (SD) [6]: 2.930 (1.012)
- FEV1 (% predicted) Mean % Change from Baseline (SD) [6]: −0.3 (2.6) %
- FEV1 (% predicted) Mean (SD) [6]: 87.6 (8.5) % predicted
- FEV1 Mean % Change from Baseline (SD) [6]: −0.405 (3.079) %
- FEV1 Mean (SD) [6]: 3.137 (0.574)
- FVC Mean % Change from Baseline (SD) [6]: −0.309 (3.272) %
- FVC Mean (SD) [6]: 4.004 (0.755)
- FEF25%-75% Mean % Change from Baseline (SD) [7]: 0.388 (7.548) %
- FEF25%-75% Mean (SD) [7]: 2.940 (0.959)
- FEV1 (% predicted) Mean % Change from Baseline (SD) [7]: 0.1 (3.3) %
- FEV1 (% predicted) Mean (SD) [7]: 88.0 (8.3) % predicted
- FEV1 Mean % Change from Baseline (SD) [7]: 0.056 (3.888) %
- FEV1 Mean (SD) [7]: 3.156 (0.598)
- FVC Mean % Change from Baseline (SD) [7]: −0.133 (4.369) %
- FVC Mean (SD) [7]: 4.015 (0.780)
- FEF25%-75% Mean % Change from Baseline (SD) [8]: −0.335 (8.198) %
- FEF25%-75% Mean (SD) [8]: 2.923 (0.963)
- FEV1 (% predicted) Mean % Change from Baseline (SD) [8]: 1.1 (3.2) %
- FEV1 (% predicted) Mean (SD) [8]: 89.0 (7.7) % predicted
- FEV1 Mean % Change from Baseline (SD) [8]: 1.228 (3.835) %
- FEV1 Mean (SD) [8]: 3.191 (0.588)
- FVC Mean % Change from Baseline (SD) [8]: 1.755 (3.720) %
- FVC Mean (SD) [8]: 4.093 (0.800)
- changes in SBP, pulse rate and DBP (double-blind, magnitude greater in binodenoson than placebo group): Transient increases in SBP and pulse rate and decreases in DBP
- need for rescue medication (single- and double-blind parts): No subject required rescue medication
- clinically significant bronchoconstriction (≧20% decrease in FEV1 from predrug baseline) (single- and double-blind parts, doses up to 1.5 μg/kg): No bronchoconstriction events; also recorded: did not induce bronchoconstriction
- FEF25%-75% Mean % Change from Baseline (SD) [9]: 0.526 (7.433) %
- FEF25%-75% Mean (SD) [9]: 2.994 (0.911)
- FEV1 (% predicted) Mean % Change from Baseline (SD) [9]: 0.1 (3.6) %
- FEV1 (% predicted) Mean (SD) [9]: 90.5 (12.1) % predicted
- FEV1 (L) Mean % Change from Baseline (SD) [9]: 0.136 (3.922) %
- FEV1 (L) Mean (SD) [9]: 3.908 (0.824) L
- FVC Mean % Change from Baseline (SD) [9]: −0.003 (2.480) %
- FVC Mean (SD) [9]: 5.516 (1.130)
- FEF25%-75% Mean % Change from Baseline (SD) [10]: 9.136 (9.019) %
- FEF25%-75% Mean (SD) [10]: 3.241 (0.946)
- FEV1 (% predicted) Mean % Change from Baseline (SD) [10]: 4.5 (3.5) %
- FEV1 (% predicted) Mean (SD) [10]: 94.9 (12.3) % predicted
- FEV1 (L) Mean % Change from Baseline (SD) [10]: 5.043 (4.097) %
- FEV1 (L) Mean (SD) [10]: 4.101 (0.867) L
- FVC Mean % Change from Baseline (SD) [10]: 2.379 (3.221) %
- FVC Mean (SD) [10]: 5.654 (1.188)
- FEF25%-75% Mean % Change from Baseline (SD) [11]: 0.724 (4.318) %
- FEF25%-75% Mean (SD) [11]: 3.665 (1.555)
- FEV1 (% predicted) Mean % Change from Baseline (SD) [11]: 1.4 (2.5) %
- FEV1 (% predicted) Mean (SD) [11]: 94.8 (13.2) % predicted
- FEV1 (L) Mean % Change from Baseline (SD) [11]: 1.292 (2.662) %
- FEV1 (L) Mean (SD) [11]: 3.944 (0.895) L
- FVC Mean % Change from Baseline (SD) [11]: 2.129 (3.295) %
- FVC Mean (SD) [11]: 5.120 (1.195)
- FEF25%-75% Mean % Change from Baseline (SD) [12]: −2.574 (12.173) %
- FEF25%-75% Mean (SD) [12]: 3.471 (1.285)
- FEV1 (% predicted) Mean % Change from Baseline (SD) [12]: 0.3 (4.2) %
- FEV1 (% predicted) Mean (SD) [12]: 93.6 (13.0) % predicted
- FEV1 (L) Mean % Change from Baseline (SD) [12]: 0.165 (4.367) %
- FEV1 (L) Mean (SD) [12]: 3.895 (0.854) L
- FVC Mean % Change from Baseline (SD) [12]: 1.624 (3.599) %
- FVC Mean (SD) [12]: 5.100 (1.219)
- FEF25%-75% Mean % Change from Baseline (SD) [13]: 0.635 (6.670) %
- FEF25%-75% Mean (SD) [13]: 2.758 (0.695)
- FEV1 (% predicted) Mean % Change from Baseline (SD) [13]: 0.1 (2.7) %
- FEV1 (% predicted) Mean (SD) [13]: 90.5 (8.5) % predicted
- FEV1 (L) Mean % Change from Baseline (SD) [13]: 0.145 (2.786) %
- FEV1 (L) Mean (SD) [13]: 3.325 (0.690) L
- FVC Mean % Change from Baseline (SD) [13]: 0.480 (2.084) %
- FVC Mean (SD) [13]: 4.364 (0.876)
- FEF25%-75% Mean % Change from Baseline (SD) [14]: 4.324 (8.478) %
- FEF25%-75% Mean (SD) [14]: 2.836 (0.636)
- FEV1 (% predicted) Mean % Change from Baseline (SD) [14]: 0.9 (2.0) %
- FEV1 (% predicted) Mean (SD) [14]: 91.3 (7.3) % predicted
